# Data taken from patent publication US10441593B2, “Treatment of pain associated with dislocation of endometrium” (PREGLEM S.A., priority 2010, dated 2019).
# System: patients with uterine fibroids and adenomyosis or endometriosis
# Test: Clinical study: 5 mg or 10 mg ulipristal on pain in patients with adenomyosis or endometriosis (Example 2)
# Assay type: in vivo, human
# Set-up: key to PBAC score at the end of treatment (week 13): PBAC score; normal <75, >100 menorrhagia; higher is worse; key to A(SF-MPQ) Score: SF-MPQ Part A pain score; lower score is better; key to B(VAS) Score / B(VAS) CFB: SF-MPQ Part B VAS pain score; lower score is better
# Procedure: Different parameters were assessed before treatment (Baseline) and after the end of treatment (13 weeks): • The PBAC score (Pictorial Blood Loss Assessment Chart) gives an estimation of the menstrual blood loss. This score was measured before treatment and continuing up to week 13 of treatment. Normal menstrual bleeding score is <75. Abnormal bleeding (menorrhagia) is characterized by a PBAC score >100. Higher the score, worse is the bleeding. • The Uterine volume was estimated before treatment (Baseline Uterine volume) and the % change in uterine volume was reported at the end of the treatment (week 13). • The SF-M P QPart A (short form of the Mc Gill Pain questionnaire) was used as a measure of the sensory, affective and intensity dimensions of pain. The pain was estimated before treatment and the change was reported at the end of the treatment (week 13). (NOTE: The lowest is the score, the better it is). • The SF-MPQ Part B (short form of the Mc Gill Pain questionnaire) wherein the pain is assessed with a visual analogue scale (VAS) before treatment and the change was reported at the end of the treatment (week 13). (NOTE: The lowest is the score, the better it is). • Discomfort questionnaire (disease specific quality of life questionnaire) estimating the quality of life before treatment and the change was reported at the end of the treatment (week 13). (NOTE: The lowest is the score, the better it is). • The level of Hb (Hemoglobin) was measured before treatment and at the end of the treatment. (NOTE: the higher it is, the better it is.) 3. Results
# A double-blinded, randomized, study evaluating the effect of long term oral administration of 5 mg or 10 mg ulipristal in patients with heavy menstrual bleeding and pain.
# The control group consisted of patients treated with GnRH agonist.
# These patients included women 36 years of age or older with evidence of uterine fibroids and adenomyosis or endometriosis diagnosed by ultrasound.
# Patient 210/5252 (candidate having adenomyosis) received a daily dose of 5 mg ulipristal (Esmya®) for 13 weeks and was followed up to week 38. A myomectomy by laparotomy was conducted after Week 13 visit.
# Patient 281/5214 (candidate having endometriosis) received a daily dose of 5 mg ulipristal (Esmya®) for 13 weeks and was followed up to week 38.
# Patient 210/5095 (candidate having adenomyosis) received a daily dose of 10 mg ulipristal (Esmya®) for 13 weeks and was followed up to week 38. A hysterectomy by laparoscopy was conducted after Week 13 visit.
# Patient 210/5308 (candidate having endometriosis) received a daily dose of 10 mg ulipristal (Esmya®) for 13 weeks and was followed up to week 38. A myomectomy by hysteroscopy was conducted after Week 13 visit.
# A myomectomy by laparoscopy and hysteroscopy was conducted between Week 26 & 38 visits.
# Patient 250/5090 (candidate having endometrioma) received a daily dose of 10 mg ulipristal (Esmya®) for 13 weeks and was followed up to week 38.
# [1] = 5 mg/day 13 weeks, patient 210/5252, adenomyosis, Week 5
# [2] = 5 mg/day 13 weeks, patient 210/5252, adenomyosis, Week 13
# [3] = 5 mg/day 13 weeks, patient 210/5252, adenomyosis, Week 26 follow-up, myomectomy by laparotomy after Week 13
# [4] = 5 mg/day 13 weeks, patient 210/5252, adenomyosis, Week 38 follow-up, myomectomy by laparotomy after Week 13
# [5] = 5 mg/day 13 weeks, patient 210/5252, adenomyosis, week 9
# [6] = 5 mg/day 13 weeks, patient 281/5214, endometriosis, Week 5
# [7] = 5 mg/day 13 weeks, patient 281/5214, endometriosis, Week 13
# [8] = 5 mg/day 13 weeks, patient 281/5214, endometriosis, Week 17 follow-up, no surgery
# [9] = 5 mg/day 13 weeks, patient 281/5214, endometriosis, Week 26 follow-up, no surgery
# [10] = 5 mg/day 13 weeks, patient 281/5214, endometriosis, Week 38 follow-up, no surgery
# [11] = 5 mg/day 13 weeks, patient 281/5214, endometriosis, week 9
# [12] = 10 mg/day 13 weeks, patient 210/5095, adenomyosis, Week 5
# [13] = 10 mg/day 13 weeks, patient 210/5095, adenomyosis, Week 13
# [14] = 10 mg/day 13 weeks, patient 210/5095, adenomyosis, Week 17 follow-up, hysterectomy by laparoscopy after Week 13
# [15] = 10 mg/day 13 weeks, patient 210/5095, adenomyosis, Week 26 follow-up, hysterectomy by laparoscopy after Week 13
# [16] = 10 mg/day 13 weeks, patient 210/5095, adenomyosis, Week 38 follow-up, hysterectomy by laparoscopy after Week 13
# [17] = 10 mg/day 13 weeks, patient 210/5095, adenomyosis, week 9
# [18] = patient 210/5095, 10 mg, adenomyosis and uterine fibroids
compound,measurement,setting,value
"CC(=O)O[C@]1(C(C)=O)CC[C@H]2[C@@H]3CCC4=CC(=O)CCC4=C3[C@@H](c3ccc(N(C)C)cc3)C[C@@]21C [Ulipristal, 17α-acetoxy-11β-[4-N,N-dimethylamino-phenyl)-19-norpregna-4,9-diene-3,20-dione]",A(SF-MPQ) CFB,[1],−2
same,A(SF-MPQ) Score,[1],14
same,B(VAS) CFB,[1],21
same,B(VAS) Score,[1],64
same,PBAC CFB,[1],150
same,PBAC Score,[1],375
same,% Change in Uterine Volume,[2],6.6%
same,A(SF-MPQ) CFB,[2],−3
same,A(SF-MPQ) Score,[2],9
same,B(VAS) CFB,[2],−6
same,B(VAS) Score,[2],37
same,PBAC CFB,[2],−101
same,PBAC Score,[2],124
same,Uterine Volume,[2],251.7 cm3
same,A(SF-MPQ) CFB,[3],−4
same,A(SF-MPQ) Score,[3],8
same,B(VAS) CFB,[3],24
same,B(VAS) Score,[3],67
same,PBAC CFB,[3],530
same,PBAC Score,[3],755
same,A(SF-MPQ) CFB,[4],−3
same,A(SF-MPQ) Score,[4],9
same,B(VAS) CFB,[4],27
same,B(VAS) Score,[4],70
same,PBAC CFB,[4],46
same,PBAC Score,[4],271
same,A(SF-MPQ) CFB,[5],−1
same,A(SF-MPQ) Score,[5],11
same,B(VAS) CFB,[5],14
same,B(VAS) Score,[5],57
same,PBAC CFB,[5],58
same,PBAC Score,[5],283
same,A(SF-MPQ) CFB,[6],−3
same,A(SF-MPQ) Score,[6],1
same,B(VAS) CFB,[6],−17
same,B(VAS) Score,[6],3
same,PBAC CFB,[6],−174
same,PBAC Score,[6],46
same,% Change in Uterine Volume,[7],21.3%
same,A(SF-MPQ) CFB,[7],−4
same,A(SF-MPQ) Score,[7],0
same,B(VAS) CFB,[7],−20
same,B(VAS) Score,[7],0
same,PBAC CFB,[7],−220
same,PBAC Score,[7],0
same,Uterine Volume,[7],159.1 cm3
same,% Change in Uterine Volume,[8],12.6%
same,Uterine Volume,[8],147.7 cm3
same,% Change in Uterine Volume,[9],−21.2%
same,B(VAS) CFB,[9],53
same,B(VAS) Score,[9],73
same,PBAC CFB,[9],−168
same,PBAC Score,[9],52
same,Uterine Volume,[9],102.2 cm3
same,% Change in Uterine Volume,[10],−24.6%
same,A(SF-MPQ) CFB,[10],−4
same,A(SF-MPQ) Score,[10],0
same,B(VAS) CFB,[10],−20
same,B(VAS) Score,[10],0
same,PBAC CFB,[10],351
same,PBAC Score,[10],571
same,Uterine Volume,[10],98.9 cm3
same,A(SF-MPQ) CFB,[11],−4
same,A(SF-MPQ) Score,[11],0
same,B(VAS) CFB,[11],−20
same,B(VAS) Score,[11],0
same,PBAC CFB,[11],−220
same,PBAC Score,[11],0
same,A(SF-MPQ) CFB,[12],14
same,A(SF-MPQ) Score,[12],0
same,B(VAS) CFB,[12],−88
same,B(VAS) Score,[12],0
same,PBAC CFB,[12],−532
same,PBAC Score,[12],328
same,% Change in Uterine Volume,[13],−33.8%
same,A(SF-MPQ) CFB,[13],−14
same,A(SF-MPQ) Score,[13],0
same,B(VAS) CFB,[13],−88
same,B(VAS) Score,[13],0
same,PBAC CFB,[13],−860
same,PBAC Score,[13],0
same,Uterine Volume,[13],284.7 cm3
same,A(SF-MPQ) CFB,[14],−14
same,A(SF-MPQ) Score,[14],0
same,A(SF-MPQ) CFB,[15],−14
same,A(SF-MPQ) Score,[15],0
same,B(VAS) CFB,[15],−88
same,B(VAS) Score,[15],0
same,PBAC Score,[15],0
same,A(SF-MPQ) CFB,[16],−14
same,A(SF-MPQ) Score,[16],0
same,B(VAS) CFB,[16],−88
same,B(VAS) Score,[16],0
same,A(SF-MPQ) CFB,[17],14
same,A(SF-MPQ) Score,[17],0
same,B(VAS) CFB,[17],−88
same,B(VAS) Score,[17],0
same,PBAC CFB,[17],−860
same,PBAC Score,[17],0
same,uterine volume at week 13 compared to baseline,"3 of 4 patients (210/5095, 210/5308, 250/5090), 10 mg",decrease in uterine volume
same,bleeding starting from week 9,[18],did not bleed anymore
same,pain starting from 5th week,[18],no pain anymore
same,PBAC value at week 13,"patient 210/5308, 10 mg/day 13 weeks, endometriosis",55
same,"pain at week 5, 9, 13 compared to baseline","patients 281/5214, 210/5095, 210/5308, 250/5090, 5 mg or 10 mg",improvement in pain
same,PBAC score at the end of treatment (week 13),"patients 281/5214, 210/5095, 250/5090, 5 mg or 10 mg",0
